Experimental data reported in ChEMBL document CHEMBL2046399, “Effect of C-ring modifications on the cytotoxicity of spirostan saponins and related glycosides” (Bioorg Med Chem, 2012).
Calls of active or inactive are those of the source. The rule behind the calls is not given here.

Tests used:
[1] = system: HL-60; test: Cytotoxicity against human HL60 cells after 72 hrs by MTT assay; format: functional, cell-based; conditions: HL-60, 72 h
[2] = system: PBMC; test: Cytotoxicity against human PBMC at 3 to 60 uM after 24 hrs by MTT assay; format: cell-based
[3] = system: HL-60; test: Cytotoxicity against human HL60 cells at 3 to 60 uM after 24 hrs by MTT assay; format: functional, cell-based
[4] = Cytotoxicity against human PBMC assessed as cell viability at 10 uM after 24 hrs by MTT assay relative to control; format: cell-based; conditions: PBMC (peripheral blood mononuclear cells), read-out: Activity
[5] = system: HL-60; test: Cytotoxicity against human HL60 cells assessed as cell viability at 10 uM after 24 hrs by MTT assay relative to control; format: functional; conditions: HL-60, 24 h, read-out: Activity
[6] = Cytotoxicity against human PBMC assessed as cell viability at 30 uM after 24 hrs by MTT assay relative to control; format: cell-based; conditions: PBMC (peripheral blood mononuclear cells), read-out: Activity
[7] = system: HL-60; test: Cytotoxicity against human HL60 cells assessed as cell viability at 30 uM after 24 hrs by MTT assay relative to control; format: functional; conditions: HL-60, 24 h, read-out: Activity

SMILES	IC50 [1] [µM]	Activity [2]	Activity [3]	also measured
C[C@@H]1CC[C@@]2(OC1)O[C@H]1C[C@H]3[C@@H]4CC[C@H]5C[C@@H](O[C@@H]6O[C@H](COC(=O)C(C)(C)C)[C@@H](O)[C@H](OC(=O)C(C)(C)C)[C@H]6O)CC[C@]5(C)[C@H]4CC(=O)O[C@]3(C)[C@H]1[C@@H]2C	9.9	Toxic	Active	
C[C@@H]1CC[C@@]2(OC1)O[C@H]1C[C@H]3[C@@H]4CC[C@H]5C[C@@H](O[C@@H]6O[C@H](CO)[C@@H](O[C@@H]7O[C@@H](C)[C@H](O)[C@@H](O)[C@H]7O)[C@H](O)[C@H]6O[C@@H]6O[C@@H](C)[C@H](O)[C@@H](O)[C@H]6O)CC[C@]5(C)C4=CC(=O)[C@]3(C)[C@H]1[C@@H]2C	30.4			
C[C@@H]1CC[C@@]2(OC1)O[C@H]1C[C@H]3[C@@H]4CC[C@H]5C[C@@H](O[C@@H]6O[C@H](COC(=O)C(C)(C)C)[C@@H](O)[C@H](OC(=O)C(C)(C)C)[C@H]6O)CC[C@]5(C)C4=CC(=O)[C@]3(C)[C@H]1[C@@H]2C	5.9			
C[C@@H]1CC[C@@]2(OC1)O[C@H]1C[C@@H]([C@@H]3CC[C@H]4C[C@@H](O[C@@H]5O[C@H](CO)[C@@H](O[C@@H]6O[C@@H](C)[C@H](O)[C@@H](O)[C@H]6O)[C@H](O)[C@H]5O[C@@H]5O[C@@H](C)[C@H](O)[C@@H](O)[C@H]5O)CC[C@]4(C)[C@H]3CC(=O)O)[C@](C)(O)[C@H]1[C@@H]2C	> 100			
C[C@@H]1CC[C@@]2(OC1)O[C@H]1C[C@H]3[C@@H]4CC[C@H]5C[C@@H](O[C@@H]6O[C@H](COC(=O)C(C)(C)C)[C@@H](O)[C@H](OC(=O)C(C)(C)C)[C@H]6O)CC[C@]5(C)[C@H]4CC[C@]3(C)[C@H]1[C@@H]2C	8.9	Toxic	Active	
C=C1C[C@H]2[C@@H](CC[C@H]3C[C@@H](O[C@@H]4O[C@H](COC(=O)C(C)(C)C)[C@@H](O)[C@H](OC(=O)C(C)(C)C)[C@H]4O)CC[C@@]32C)[C@@H]2C[C@@H]3O[C@]4(CC[C@@H](C)CO4)[C@@H](C)[C@@H]3[C@@]12C	15.7	Toxic	Active	
CO[C@@H]1C[C@H]2[C@@H](CC[C@H]3C[C@@H](O[C@@H]4O[C@H](CO)[C@@H](O[C@@H]5O[C@@H](C)[C@H](O)[C@@H](O)[C@H]5O)[C@H](O)[C@H]4O[C@@H]4O[C@@H](C)[C@H](O)[C@@H](O)[C@H]4O)CC[C@@]32C)[C@@H]2C[C@@H]3O[C@]4(CC[C@@H](C)CO4)[C@@H](C)[C@@H]3[C@@]12C	21.8			
CO[C@@H]1C[C@H]2[C@@H](CC[C@H]3C[C@@H](O[C@@H]4O[C@H](COC(=O)C(C)(C)C)[C@@H](O)[C@H](OC(=O)C(C)(C)C)[C@H]4O)CC[C@@]32C)[C@@H]2C[C@@H]3O[C@]4(CC[C@@H](C)CO4)[C@@H](C)[C@@H]3[C@@]12C	19.2	Toxic	Active	
C[C@@H]1CC[C@@]2(OC1)O[C@H]1C[C@H]3[C@@H]4CC[C@H]5C[C@@H](O[C@@H]6O[C@H](CO)[C@@H](O[C@@H]7O[C@@H](C)[C@H](O)[C@@H](O)[C@H]7O)[C@H](O)[C@H]6O[C@@H]6O[C@@H](C)[C@H](O)[C@@H](O)[C@H]6O)CC[C@]5(C)[C@H]4CC[C@]3(C)[C@H]1[C@@H]2C	2.6			viability at 24 h, 10 µM [4]: 45%; viability at 10 µM [5]: 17%
CO[C@H]1C[C@H]2[C@@H](CC[C@H]3C[C@@H](O[C@@H]4O[C@H](COC(=O)C(C)(C)C)[C@@H](O)[C@H](OC(=O)C(C)(C)C)[C@H]4O)CC[C@@]32C)[C@@H]2C[C@@H]3O[C@]4(CC[C@@H](C)CO4)[C@@H](C)[C@@H]3[C@@]12C	21.5			
C=C1C[C@H]2[C@@H](CC[C@H]3C[C@@H](O[C@@H]4O[C@H](CO)[C@@H](O[C@@H]5O[C@@H](C)[C@H](O)[C@@H](O)[C@H]5O)[C@H](O)[C@H]4O[C@@H]4O[C@@H](C)[C@H](O)[C@@H](O)[C@H]4O)CC[C@@]32C)[C@@H]2C[C@@H]3O[C@]4(CC[C@@H](C)CO4)[C@@H](C)[C@@H]3[C@@]12C	9.7			viability at 24 h, 30 µM [6]: 64.2%; viability at 30 µM [7]: 23%
CO[C@H]1C[C@H]2[C@@H](CC[C@H]3C[C@@H](O[C@@H]4O[C@H](CO)[C@@H](O[C@@H]5O[C@@H](C)[C@H](O)[C@@H](O)[C@H]5O)[C@H](O)[C@H]4O[C@@H]4O[C@@H](C)[C@H](O)[C@@H](O)[C@H]4O)CC[C@@]32C)[C@@H]2C[C@@H]3O[C@]4(CC[C@@H](C)CO4)[C@@H](C)[C@@H]3[C@@]12C	31.5			
